The supplement of paper PMC8149375

Legend:
Conditions in all cases: treatment: drug + dasatinib (fixed dose, not stated); 5 days
769-P [1] = assay: GI50 of drug in presence of dasatinib; higher = less potent
Protocol: (§1)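 Primary HTS combination arm: 8 RCC cell lines treated with 8 doses (up to 10 uM) of each library drug plus a fixed dose of dasatinib (dose not stated) for 5 days; viability read by CellTiter-Glo and normalised to DMSO. GI50 was fitted with XLfit, AUC is the area under the dose-response curve, and minimum viability is the lowest fraction of DMSO viability across doses.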

786-O [2] = assay: as above
Protocol: as §1

A498 [3] = assay: as above
Protocol: as §1

ACHN [4] = assay: as above
Protocol: as §1

CAKI-1 [5] = assay: as above
Protocol: as §1

SN12C [6] = assay: as above
Protocol: as §1

TK-10 [7] = assay: as above
Protocol: as §1

UO-31 [8] = assay: as above
Protocol: as §1

769-P [9] = assay: minimum viability across doses, drug + dasatinib, relative to DMSO (fraction); higher = less growth inhibition
Protocol: as §1

786-O [10] = assay: as above
Protocol: as §1

A498 [11] = assay: as above
Protocol: as §1

ACHN [12] = assay: as above
Protocol: as §1

CAKI-1 [13] = assay: as above
Protocol: as §1

SN12C [14] = assay: as above
Protocol: as §1

TK-10 [15] = assay: as above
Protocol: as §1

UO-31 [16] = assay: as above
Protocol: as §1

769-P [17] = assay: AUC of dose-response viability curve, drug + dasatinib, normalised to DMSO (arbitrary (AUC of normalised viability)); higher = less growth inhibition
Protocol: as §1

786-O [18] = assay: as above
Protocol: as §1

A498 [19] = assay: as above
Protocol: as §1

ACHN [20] = assay: as above
Protocol: as §1

CAKI-1 [21] = assay: as above
Protocol: as §1

SN12C [22] = assay: as above
Protocol: as §1

TK-10 [23] = assay: as above
Protocol: as §1

UO-31 [24] = assay: as above
Protocol: as §1

SMILES	GI50 of drug (769-P [1])	GI50 of drug (786-O [2])	GI50 of drug (A498 [3])	GI50 of drug (ACHN [4])	GI50 of drug (CAKI-1 [5])	GI50 of drug (SN12C [6])	GI50 of drug (TK-10 [7])	GI50 of drug (UO-31 [8])	minimum viability across doses (769-P [9])	minimum viability across doses (786-O [10])	minimum viability across doses (A498 [11])	minimum viability across doses (ACHN [12])	minimum viability across doses (CAKI-1 [13])	minimum viability across doses (SN12C [14])	minimum viability across doses (TK-10 [15])	minimum viability across doses (UO-31 [16])	AUC of dose-response viability curve (769-P [17])	AUC of dose-response viability curve (786-O [18])	AUC of dose-response viability curve (A498 [19])	AUC of dose-response viability curve (ACHN [20])	AUC of dose-response viability curve (CAKI-1 [21])	AUC of dose-response viability curve (SN12C [22])	AUC of dose-response viability curve (TK-10 [23])	AUC of dose-response viability curve (UO-31 [24])
Nc1cccc2c1CN(C1CCC(=O)NC1=O)C2=O (configuration not stated) [Lenalidomide (Revlimid)] + Cc1nc(Nc2ncc(C(=O)Nc3c(C)cccc3Cl)s2)cc(N2CCN(CCO)CC2)n1 [dasatinib]	> 10000 nM	< 3 nM	> 10000 nM	> 10000 nM	> 10000 nM	> 10000 nM	> 10000 nM	> 10000 nM	0.497	0.488	0.989	0.503	0.656	0.706	0.666	1.19	2.51	2.61	3.71	2.05	2.41	2.55	2.56	4.59
CC[C@@H]1C(=O)N(C)c2cnc(Nc3ccc(C(=O)NC4CCN(C)CC4)cc3OC)nc2N1C1CCCC1 [BI 2536] + Cc1nc(Nc2ncc(C(=O)Nc3c(C)cccc3Cl)s2)cc(N2CCN(CCO)CC2)n1 [dasatinib]	56.8 nM	8.79 nM	38.4 nM	4.47 nM	7.85 nM	32.1 nM	405 nM	61.4 nM	0.0343	0.0183	0.0692	0.0392	0.0866	0.052	0.0551	0.0114	1.28	0.643	1.51	0.778	0.981	1.24	1.68	1.3
CN1CCN(CCOc2cc(OC3CCOCC3)c3c(Nc4c(Cl)ccc5c4OCO5)ncnc3c2)CC1 [Saracatinib (AZD0530)] + Cc1nc(Nc2ncc(C(=O)Nc3c(C)cccc3Cl)s2)cc(N2CCN(CCO)CC2)n1 [dasatinib]	311 nM	2000 nM	> 10000 nM	366 nM	878 nM	> 10000 nM	709 nM	1090 nM	0.0614	0.333	0.616	0.192	0.14	0.536	0.102	0.158	1.68	2.28	3.19	1.79	2.01	2.39	2.19	2.51
